# Measurements as given in patent publication US12365696B2, “Small-molecule focal adhesion kinase (FAK) inhibitors” (DANA-FARBER CANCER INSTITUTE, INC., priority 2019, dated 2025).
# Like-named read-outs stand apart in the source and are kept apart here.
# Experiments:
# Assay in all cases: KINOMEscan
# Format in all cases: binding
# PRKCE = PRKCE (Homo sapiens (Human), UniProt Q02156); conditions: 10000 nM, read-out: Percent Control
# [1] = biological target: EGFR(L747-S752del, P753S) (Homo sapiens (Human), UniProt P00533, DEL747-752/P753S); conditions: 10000 nM, read-out: Percent Control
# IGF1R = IGF1R (Homo sapiens (Human), UniProt P08069); conditions: 10000 nM, read-out: Percent Control
# PRKX = PRKX (Homo sapiens (Human), UniProt P51817); conditions: 10000 nM, read-out: Percent Control
# PLK1 = PLK1 (Homo sapiens (Human), UniProt P53350); conditions: PLK1, 10000 nM; read-out: Percent Control
# CDKL2 = CDKL2 (Homo sapiens (Human), UniProt Q92772); conditions: CDKL2, 10000 nM; read-out: Percent Control
# EGFR(L858R) = EGFR(L858R) (Homo sapiens (Human), UniProt P00533, L858R); conditions: 10000 nM, read-out: Percent Control
# TIE2 = TIE2 (Homo sapiens (Human), UniProt Q02763); conditions: TIE2, 10000 nM; read-out: Percent Control
# EGFR = EGFR (Homo sapiens (Human), UniProt P00533); conditions: 10000 nM, read-out: Percent Control
# FLT3(D835H) = FLT3(D835H) (Homo sapiens (Human), UniProt P36888, D835H); conditions: 10000 nM, read-out: Percent Control
# ACVR2A = ACVR2A (Homo sapiens (Human), UniProt P27037); conditions: 10000 nM, read-out: Percent Control
# MAP3K3 = MAP3K3 (Homo sapiens (Human), UniProt Q99759); conditions: MAP3K3, 10000 nM; read-out: Percent Control
# CAMK1D = CAMK1D (Homo sapiens (Human), UniProt Q8IU85); conditions: 10000 nM, read-out: Percent Control
# EPHB6 = EPHB6 (Homo sapiens (Human), UniProt O15197); conditions: EPHB6, 10000 nM; read-out: Percent Control
# TBK1 = TBK1 (Homo sapiens (Human), UniProt Q9UHD2); conditions: TBK1, 10000 nM; read-out: Percent Control
# FYN = FYN (Homo sapiens (Human), UniProt P06241); conditions: 10000 nM, read-out: Percent Control
# LOK = LOK (Homo sapiens (Human), UniProt O94804); conditions: 10000 nM, read-out: Percent Control
# MLCK = MLCK (Homo sapiens (Human), UniProt Q32MK0); conditions: 10000 nM, read-out: Percent Control
# RIOK2 = RIOK2 (Homo sapiens (Human), UniProt Q9BVS4); conditions: RIOK2, 10000 nM; read-out: Percent Control
# ITK = ITK (Homo sapiens (Human), UniProt Q08881); conditions: 10000 nM, read-out: Percent Control
# EIF2AK1 = EIF2AK1 (Homo sapiens (Human), UniProt Q9BQI3); conditions: EIF2AK1, 10000 nM; read-out: Percent Control
# PDGFRA = PDGFRA (Homo sapiens (Human), UniProt P16234); conditions: 10000 nM, read-out: Percent Control
# CDK2 = CDK2 (Homo sapiens (Human), UniProt P24941); conditions: CDK2, 10000 nM; read-out: Percent Control
# DYRK1A = DYRK1A (Homo sapiens (Human), UniProt Q13627); conditions: 10000 nM, read-out: Percent Control
# EPHA2 = EPHA2 (Homo sapiens (Human), UniProt P29317); conditions: EPHA2, 10000 nM; read-out: Percent Control
# IRAK1 = IRAK1 (Homo sapiens (Human), UniProt P51617); conditions: read-out: Percent Control
# AMPK-alpha2 = AMPK-alpha2 (Homo sapiens (Human), UniProt P54646); conditions: AMPK-alpha2, 10000 nM; read-out: Percent Control
# CSNK1G2 = CSNK1G2 (Homo sapiens (Human), UniProt P78368); conditions: CSNK1G2, 10000 nM; read-out: Percent Control
# RAF1 = RAF1 (Homo sapiens (Human), UniProt P04049); conditions: RAF1, 10000 nM; read-out: Percent Control
# FLT3(ITD, F691L) = conditions: 10000 nM
# DMPK2 = DMPK2 (Homo sapiens (Human), UniProt Q6DT37); conditions: DMPK2, 10000 nM; read-out: Percent Control
# EGFR(S752-I759del) = EGFR(S752-I759del) (Homo sapiens (Human), UniProt P00533, DEL752-759); conditions: 10000 nM, read-out: Percent Control
# TNNI3K = TNNI3K (Homo sapiens (Human), UniProt Q59H18); conditions: 10000 nM, read-out: Percent Control
# TTK = TTK (Homo sapiens (Human), UniProt P33981); conditions: 10000 nM, read-out: Percent Control
# WNK2 = WNK2 (Homo sapiens (Human), UniProt Q9Y3S1); conditions: WNK2, 10000 nM; read-out: Percent Control
# PRKX, sequence (P51817 whole entry): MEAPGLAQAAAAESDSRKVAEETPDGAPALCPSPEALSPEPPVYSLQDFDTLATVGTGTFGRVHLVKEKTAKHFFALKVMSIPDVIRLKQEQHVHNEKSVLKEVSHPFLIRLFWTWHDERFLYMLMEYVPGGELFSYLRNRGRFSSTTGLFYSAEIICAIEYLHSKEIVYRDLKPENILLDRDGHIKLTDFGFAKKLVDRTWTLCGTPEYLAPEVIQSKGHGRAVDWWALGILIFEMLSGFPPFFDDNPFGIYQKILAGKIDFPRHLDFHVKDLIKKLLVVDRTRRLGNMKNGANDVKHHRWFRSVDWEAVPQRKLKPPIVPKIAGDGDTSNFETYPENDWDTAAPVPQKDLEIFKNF
# EGFR(L747-S752del, P753S), sequence (P00533 other isoform, or with tags, fused parts or gaps P753S): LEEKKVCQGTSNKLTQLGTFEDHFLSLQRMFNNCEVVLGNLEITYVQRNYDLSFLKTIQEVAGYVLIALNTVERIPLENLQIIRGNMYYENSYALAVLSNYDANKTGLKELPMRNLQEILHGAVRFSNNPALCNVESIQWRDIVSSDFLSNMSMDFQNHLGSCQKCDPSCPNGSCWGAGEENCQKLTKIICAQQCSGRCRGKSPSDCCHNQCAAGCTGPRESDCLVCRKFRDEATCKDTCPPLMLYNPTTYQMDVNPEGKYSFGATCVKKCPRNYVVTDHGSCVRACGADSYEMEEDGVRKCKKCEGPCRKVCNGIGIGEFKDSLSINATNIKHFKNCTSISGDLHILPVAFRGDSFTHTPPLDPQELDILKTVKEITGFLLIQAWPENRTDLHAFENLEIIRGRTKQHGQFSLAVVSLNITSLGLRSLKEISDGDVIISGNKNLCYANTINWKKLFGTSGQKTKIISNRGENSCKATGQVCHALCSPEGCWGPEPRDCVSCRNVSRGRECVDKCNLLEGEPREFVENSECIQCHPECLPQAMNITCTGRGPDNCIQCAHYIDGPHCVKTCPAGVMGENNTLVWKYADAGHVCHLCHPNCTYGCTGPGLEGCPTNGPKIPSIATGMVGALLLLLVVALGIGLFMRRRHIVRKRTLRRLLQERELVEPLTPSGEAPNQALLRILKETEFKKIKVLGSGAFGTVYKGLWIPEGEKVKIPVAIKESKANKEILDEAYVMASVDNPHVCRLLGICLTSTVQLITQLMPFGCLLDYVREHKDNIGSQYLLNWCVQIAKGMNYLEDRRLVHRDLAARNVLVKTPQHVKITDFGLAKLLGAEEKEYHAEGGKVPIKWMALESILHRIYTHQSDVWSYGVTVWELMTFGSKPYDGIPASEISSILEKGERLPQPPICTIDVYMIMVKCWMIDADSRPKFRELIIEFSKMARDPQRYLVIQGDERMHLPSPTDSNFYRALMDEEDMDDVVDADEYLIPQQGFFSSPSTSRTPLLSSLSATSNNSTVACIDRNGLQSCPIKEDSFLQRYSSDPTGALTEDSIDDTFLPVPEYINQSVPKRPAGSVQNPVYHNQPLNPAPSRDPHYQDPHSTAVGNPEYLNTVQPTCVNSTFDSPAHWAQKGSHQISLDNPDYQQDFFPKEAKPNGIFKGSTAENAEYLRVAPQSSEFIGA
# EPHA2, sequence (P29317 24-976): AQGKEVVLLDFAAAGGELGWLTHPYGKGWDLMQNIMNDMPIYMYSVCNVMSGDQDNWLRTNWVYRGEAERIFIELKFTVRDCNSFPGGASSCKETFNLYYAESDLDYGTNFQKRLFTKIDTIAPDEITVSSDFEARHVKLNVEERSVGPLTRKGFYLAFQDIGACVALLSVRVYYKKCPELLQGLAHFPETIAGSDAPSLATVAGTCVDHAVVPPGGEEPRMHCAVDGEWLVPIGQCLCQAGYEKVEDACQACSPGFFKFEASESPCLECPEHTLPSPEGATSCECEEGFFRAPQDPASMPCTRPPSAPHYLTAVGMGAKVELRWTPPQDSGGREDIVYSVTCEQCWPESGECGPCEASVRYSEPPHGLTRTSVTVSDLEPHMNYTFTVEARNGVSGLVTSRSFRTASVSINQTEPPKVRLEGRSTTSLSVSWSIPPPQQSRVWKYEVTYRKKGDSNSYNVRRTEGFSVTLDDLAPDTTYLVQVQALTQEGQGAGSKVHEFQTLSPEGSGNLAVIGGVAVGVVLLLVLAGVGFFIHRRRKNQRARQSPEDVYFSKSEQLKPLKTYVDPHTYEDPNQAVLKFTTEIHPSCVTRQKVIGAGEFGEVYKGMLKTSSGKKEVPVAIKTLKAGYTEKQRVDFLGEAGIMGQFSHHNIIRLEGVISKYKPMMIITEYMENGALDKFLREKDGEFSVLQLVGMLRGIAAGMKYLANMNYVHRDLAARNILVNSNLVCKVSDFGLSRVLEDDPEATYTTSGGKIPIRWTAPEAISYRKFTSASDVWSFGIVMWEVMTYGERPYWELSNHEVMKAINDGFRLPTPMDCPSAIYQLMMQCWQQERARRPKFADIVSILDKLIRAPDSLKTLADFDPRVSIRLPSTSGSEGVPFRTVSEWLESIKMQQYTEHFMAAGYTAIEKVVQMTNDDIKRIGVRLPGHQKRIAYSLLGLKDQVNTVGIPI
# EPHB6, sequence (O15197 32-1021): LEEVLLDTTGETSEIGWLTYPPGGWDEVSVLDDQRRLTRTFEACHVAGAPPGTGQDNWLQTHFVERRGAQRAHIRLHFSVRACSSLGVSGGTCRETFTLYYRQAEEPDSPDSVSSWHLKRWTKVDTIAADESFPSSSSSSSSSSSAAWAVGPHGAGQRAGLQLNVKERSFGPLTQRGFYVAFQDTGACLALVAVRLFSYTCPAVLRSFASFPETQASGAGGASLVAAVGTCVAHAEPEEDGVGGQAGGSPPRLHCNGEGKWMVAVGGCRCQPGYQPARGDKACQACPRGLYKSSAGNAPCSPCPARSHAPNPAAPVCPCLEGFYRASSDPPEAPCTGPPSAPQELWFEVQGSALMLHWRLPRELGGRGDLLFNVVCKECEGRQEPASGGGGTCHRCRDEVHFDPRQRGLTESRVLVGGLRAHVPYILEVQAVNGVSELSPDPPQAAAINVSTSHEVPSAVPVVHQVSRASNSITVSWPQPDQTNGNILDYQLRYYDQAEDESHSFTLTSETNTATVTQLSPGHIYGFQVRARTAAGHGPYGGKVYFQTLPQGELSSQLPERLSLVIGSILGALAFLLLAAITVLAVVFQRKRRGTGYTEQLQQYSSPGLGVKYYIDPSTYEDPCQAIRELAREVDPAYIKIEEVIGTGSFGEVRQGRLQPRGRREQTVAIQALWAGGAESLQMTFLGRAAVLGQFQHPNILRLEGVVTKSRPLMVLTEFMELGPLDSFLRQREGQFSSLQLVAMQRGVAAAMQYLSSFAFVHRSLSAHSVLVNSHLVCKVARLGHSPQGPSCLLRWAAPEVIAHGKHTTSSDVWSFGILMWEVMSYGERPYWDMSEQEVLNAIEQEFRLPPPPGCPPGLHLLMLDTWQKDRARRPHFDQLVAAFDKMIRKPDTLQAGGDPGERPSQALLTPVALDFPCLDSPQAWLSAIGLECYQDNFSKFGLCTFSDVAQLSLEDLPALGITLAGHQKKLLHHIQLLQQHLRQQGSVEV
# AMPK-alpha2, sequence (P54646 whole entry): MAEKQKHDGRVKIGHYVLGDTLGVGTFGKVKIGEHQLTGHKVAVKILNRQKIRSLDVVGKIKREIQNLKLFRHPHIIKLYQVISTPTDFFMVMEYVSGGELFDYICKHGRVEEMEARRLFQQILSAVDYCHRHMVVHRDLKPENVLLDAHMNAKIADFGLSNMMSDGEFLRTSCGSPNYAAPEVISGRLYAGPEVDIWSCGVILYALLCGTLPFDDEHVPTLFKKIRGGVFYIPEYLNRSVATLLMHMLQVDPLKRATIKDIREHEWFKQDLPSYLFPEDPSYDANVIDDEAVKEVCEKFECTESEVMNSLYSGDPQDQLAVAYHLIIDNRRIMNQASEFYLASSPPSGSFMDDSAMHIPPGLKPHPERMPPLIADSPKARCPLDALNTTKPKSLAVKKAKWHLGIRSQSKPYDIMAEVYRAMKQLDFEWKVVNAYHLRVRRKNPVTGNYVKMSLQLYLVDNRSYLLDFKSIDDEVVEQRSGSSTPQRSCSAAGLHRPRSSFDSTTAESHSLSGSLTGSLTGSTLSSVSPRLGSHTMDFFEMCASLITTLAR
# CAMK1D, sequence (Q8IU85 whole entry): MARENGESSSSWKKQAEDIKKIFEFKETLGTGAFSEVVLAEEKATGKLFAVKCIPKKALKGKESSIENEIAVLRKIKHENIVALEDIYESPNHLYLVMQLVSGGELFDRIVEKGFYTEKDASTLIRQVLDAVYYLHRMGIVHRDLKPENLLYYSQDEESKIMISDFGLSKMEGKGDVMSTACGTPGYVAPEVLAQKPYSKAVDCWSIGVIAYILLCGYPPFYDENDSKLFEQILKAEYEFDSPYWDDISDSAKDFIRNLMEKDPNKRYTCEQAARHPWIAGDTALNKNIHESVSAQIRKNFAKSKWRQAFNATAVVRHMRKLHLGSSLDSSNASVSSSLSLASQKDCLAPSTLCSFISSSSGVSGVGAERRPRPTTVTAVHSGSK
# RAF1, sequence (P04049 whole entry): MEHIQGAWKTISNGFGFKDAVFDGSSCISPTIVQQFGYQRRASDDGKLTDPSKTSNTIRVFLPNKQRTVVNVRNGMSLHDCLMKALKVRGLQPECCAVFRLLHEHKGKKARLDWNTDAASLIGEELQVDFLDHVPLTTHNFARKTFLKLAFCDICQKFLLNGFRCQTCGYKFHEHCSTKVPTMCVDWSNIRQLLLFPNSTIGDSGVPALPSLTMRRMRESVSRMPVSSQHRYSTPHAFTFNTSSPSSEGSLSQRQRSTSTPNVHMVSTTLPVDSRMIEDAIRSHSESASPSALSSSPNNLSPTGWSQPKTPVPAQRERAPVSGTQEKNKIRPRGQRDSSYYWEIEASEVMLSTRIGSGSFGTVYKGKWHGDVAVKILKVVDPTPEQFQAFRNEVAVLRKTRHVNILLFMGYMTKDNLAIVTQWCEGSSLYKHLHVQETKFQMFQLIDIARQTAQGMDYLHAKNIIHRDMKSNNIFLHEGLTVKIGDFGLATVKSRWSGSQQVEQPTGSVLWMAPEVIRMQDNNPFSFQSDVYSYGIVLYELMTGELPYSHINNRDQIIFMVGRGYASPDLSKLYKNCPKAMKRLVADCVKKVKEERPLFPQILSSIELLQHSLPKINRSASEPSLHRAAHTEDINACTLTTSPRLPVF
structure (smiles),measurement,setting,value
"COc1cc(N2CCC(N3CCN(C)CC3)CC2)ccc1Nc1ncc2c(n1)N(C)c1sc(C)nc1C(=O)N2 [Compound 3, 6-((2-methoxy-4-(4-(4-methylpiperazin-1-yl)piperidin-1-yl)phenyl)amino)-2,4-dimethyl-4,9-dihydro-10H-pyrimido[5,4-b]thiazolo[5,4-e][1,4]diazepin-10-one]",remaining binding at 10 µM,PRKCE,100%
same,remaining binding at 10 µM,[1],99%
same,remaining binding at 10 µM,IGF1R,86%
same,remaining binding at 10 µM,PRKX,96%
same,remaining binding at 10 µM,PLK1,100%
same,remaining binding at 10 µM,CDKL2,75%
same,remaining binding at 10 µM,EGFR(L858R),79%
same,remaining binding at 10 µM,TIE2,83%
same,remaining binding at 10 µM,EGFR,90%
same,remaining binding at 10 µM,FLT3(D835H),67%
same,remaining binding at 10 µM,ACVR2A,76%
same,remaining binding at 10 µM,MAP3K3,100%
same,remaining binding at 10 µM,CAMK1D,98%
same,remaining binding at 10 µM,EPHB6,45%
same,remaining binding at 10 µM,TBK1,71%
same,remaining binding at 10 µM,FYN,73%
same,remaining binding at 10 µM,LOK,84%
same,remaining binding at 10 µM,MLCK,94%
same,remaining binding at 10 µM,RIOK2,82%
same,remaining binding at 10 µM,ITK,87%
same,remaining binding at 10 µM,EIF2AK1,73%
same,remaining binding at 10 µM,PDGFRA,100%
same,remaining binding at 10 µM,CDK2,81%
same,remaining binding at 10 µM,DYRK1A,100%
same,remaining binding at 10 µM,EPHA2,91%
same,remaining binding at 10 µM,"IRAK1; IRAK1, 10000 nM",100%
same,remaining binding at 10 µM,AMPK-alpha2,83%
same,remaining binding at 10 µM,CSNK1G2,81%
same,remaining binding at 10 µM,RAF1,85%
same,Percent Control,"FLT3(ITD, F691L)",100%
same,remaining binding at 10 µM,DMPK2,91%
same,remaining binding at 10 µM,EGFR(S752-I759del),47%
same,remaining binding at 10 µM,TNNI3K,79%
same,remaining binding at 10 µM,TTK,51%
same,remaining binding at 10 µM,WNK2,74%
"COc1cc(N2CCC(N3CCN(C)CC3)CC2)ccc1Nc1ncc2c(n1)N(C)c1sc(C)nc1C(=O)N2C [Compound 5, 6-((2-methoxy-4-(4-(4-methylpiperazin-1-yl)piperidin-1-yl)phenyl)amino)-2,4,9-trimethyl-4,9-dihydro-10H-pyrimido[5,4-b]thiazolo[5,4-e][1,4]diazepin-10-one]",remaining binding at 10 µM,PRKCE,100%
same,remaining binding at 10 µM,[1],91%
same,remaining binding at 10 µM,IGF1R,40%
same,remaining binding at 10 µM,PRKX,99%
same,remaining binding at 10 µM,PLK1,0.7%
same,remaining binding at 10 µM,CDKL2,95%
same,remaining binding at 10 µM,EGFR(L858R),100%
same,remaining binding at 10 µM,TIE2,100%
same,remaining binding at 10 µM,EGFR,100%
same,remaining binding at 10 µM,FLT3(D835H),100%
same,remaining binding at 10 µM,ACVR2A,97%
same,remaining binding at 10 µM,MAP3K3,100%
same,remaining binding at 10 µM,CAMK1D,86%
same,remaining binding at 10 µM,EPHB6,100%
same,remaining binding at 10 µM,TBK1,88%
same,remaining binding at 10 µM,FYN,93%
same,remaining binding at 10 µM,LOK,99%
same,remaining binding at 10 µM,MLCK,100%
same,remaining binding at 10 µM,RIOK2,100%
same,remaining binding at 10 µM,ITK,99%
same,remaining binding at 10 µM,EIF2AK1,100%
same,remaining binding at 10 µM,PDGFRA,88%
same,remaining binding at 10 µM,CDK2,100%
same,remaining binding at 10 µM,DYRK1A,87%
same,remaining binding at 10 µM,EPHA2,91%
same,remaining binding at 10 µM,"IRAK1; IRAKI, 10000 nM",100%
same,remaining binding at 10 µM,AMPK-alpha2,100%
same,remaining binding at 10 µM,CSNK1G2,80%
same,remaining binding at 10 µM,RAF1,95%
same,Percent Control,"FLT3(ITD, F691L)",93%
same,remaining binding at 10 µM,DMPK2,93%
same,remaining binding at 10 µM,EGFR(S752-I759del),100%
same,remaining binding at 10 µM,TNNI3K,88%
same,remaining binding at 10 µM,TTK,6.9%
same,remaining binding at 10 µM,WNK2,100%
